Results as given in patent US20140038989A1, “TETRAHYDROPYRAZOLO [1,5-A] PYRIMIDINE AS ANTI-TUBERCULOSIS COMPOUNDS” (Glaxo Group Limited, priority 2011, published 2014).
Values after ≈ are worked out from the molar mass of the structure shown.

Each compound was assayed on Mycobacterium tuberculosis H37Rv (assay: Mycobacterium tuberculosis H37Rv Inhibition Assay (Whole Cell Assay)). Settings: ATCC 25618 / H37Rv, H37Rv strain (ATCC25618), Middlebrook 7H9, six days at 37° C., resazurin fluorescence after 48 hours.
Assay type: cell-based

Row | SMILES | MIC
1 | CCc1ccc([C@H]2C[C@@H](C(F)(F)F)n3ncc(C(=O)NCc4ccc(C)c(F)c4)c3N2)cc1 (relative stereo) [Example 64, Cis-5-(4-ethylphenyl)-N-(3-fluoro-4-methylbenzyl)-7-(trifluoromethyl)-4,5,6,7-tetrahydropyrazolo[1,5-a]pyrimidine-3-carboxamide] | ≤ 1 µM
2 | CCc1ccc([C@H]2C[C@@H](C(F)(F)F)n3ncc(C(=O)NCc4ccc(C)c(C)c4)c3N2)cc1 (relative stereo) [Example 65, Cis-N-(3,4-dimethylbenzyl)-5-(4-ethylphenyl)-7-(trifluoromethyl)-4,5,6,7-tetrahydropyrazolo[1,5-a]pyrimidine-3-carboxamide] | ≤ 1 µM
3 | CCc1ccc([C@H]2C[C@@H](C(C)C)n3ncc(C(=O)NCc4ccc(C)cc4)c3N2)cc1 (relative stereo) [Example 66, Cis-5-(4-ethylphenyl)-7-isopropyl-N-(4-methylbenzyl)-4,5,6,7-tetrahydropyrazolo[1,5-a]pyrimidine-3-carboxamide] | ≤ 1 µM
4 | CCc1ccc([C@H]2C[C@@H](C(F)(F)F)n3ncc(C(=O)NCc4ccc(Cl)cc4)c3N2)cc1 (relative stereo) [Example 67, Cis-N-(4-chlorobenzyl)-5-(4-ethylphenyl)-7-(trifluoromethyl)-4,5,6,7-tetrahydropyrazolo[1,5-a]pyrimidine-3-carboxamide] | ≤ 1 µM
5 | CCc1ccc([C@H]2C[C@@H](C(C)(F)F)n3ncc(C(=O)NCc4ccc(C)cc4)c3N2)cc1 (relative stereo) [Example 68, Cis-7-(1,1-difluoroethyl)-5-(4-ethylphenyl)-N-(4-methylbenzyl)-4,5,6,7-tetrahydropyrazolo[1,5-a]pyrimidine-3-carboxamide] | ≤ 1 µM
6 | CCc1ccc([C@H]2C[C@@H](C(F)(F)F)n3ncc(C(=O)NCc4ccc(F)cn4)c3N2)cc1 (relative stereo) [Example 69, Cis-5-(4-ethylphenyl)-N-((5-fluoropyridin-2-yl)methyl)-7-(trifluoromethyl)-4,5,6,7-tetrahydropyrazolo[1,5-a]pyrimidine-3-carboxamide] | ≤ 1 µM
7 | CCc1ccc([C@H]2C[C@@H](C(F)(F)F)n3ncc(C(=O)NCc4ncc(F)cc4F)c3N2)cc1 (relative stereo) [Example 70, Cis N-((3,5-difluoropyridin-2-yl)methyl)-5-(4-ethylphenyl)-7-(trifluoromethyl)-4,5,6,7-tetrahydropyrazolo[1,5-a]pyrimidine-3-carboxamide] | ≤ 1 µM
8 | CCc1ccc([C@H]2C[C@@H](C(C)C)n3ncc(C(=O)NCc4ccc(OC)cc4)c3N2)cc1 (relative stereo) [Example 71, Cis-5-(4-ethylphenyl)-7-isopropyl-N-(4-methoxybenzyl)-4,5,6,7-tetrahydropyrazolo[1,5-a]pyrimidine-3-carboxamide] | ≤ 1 µM
9 | CCc1ccc([C@H]2C[C@@H](C(F)(F)F)n3ncc(C(=O)NCc4ccc(C)n4C)c3N2)cc1 (relative stereo) [Example 72, Cis-N-((1,5-dimethyl-1H-pyrrol-2-yl)methyl)-5-(4-ethylphenyl)-7-(trifluoromethyl)-4,5,6,7-tetrahydropyrazolo[1,5-a]pyrimidine-3-carboxamide] | ≤ 1 µM
10 | CCc1ccc([C@H]2C[C@@H](C(F)(F)F)n3ncc(C(=O)NCc4ccccc4Cl)c3N2)cc1 (relative stereo) [Example 73, Cis-N-(2-chlorobenzyl)-5-(4-ethylphenyl)-7-(trifluoromethyl)-4,5,6,7-tetrahydropyrazolo[1,5-a]pyrimidine-3-carboxamide] | 1 to 2 µM (≈ 0.463 to 0.926 µg/mL)
11 | CCc1ccc([C@H]2C[C@@H](C(F)(F)F)n3ncc(C(=O)NCc4ccc(OC)nc4)c3N2)cc1 (relative stereo) [Example 74, Cis5-(4-ethylphenyl)-N-((6-methoxypyridin-3-yl)methyl)-7-(trifluoromethyl)-4,5,6,7-tetrahydropyrazolo[1,5-a]pyrimidine-3-carboxamide] | 1 to 2 µM (≈ 0.459 to 0.919 µg/mL)
12 | CCc1ccc([C@H]2C[C@@H](C(F)(F)F)n3ncc(C(=O)NCc4ccc(Cl)cn4)c3N2)cc1 (relative stereo) [Example 75, Cis-N-((5-chloropyridin-2-yl)methyl)-5-(4-ethylphenyl)-7-(trifluoromethyl)-4,5,6,7-tetrahydropyrazolo[1,5-a]pyrimidine-3-carboxamide] | 1 to 2 µM (≈ 0.464 to 0.928 µg/mL)
13 | CCc1ccc([C@H]2C[C@@H](C(F)(F)F)n3ncc(C(=O)NCc4ccc(Cl)nc4)c3N2)cc1 (relative stereo) [Example 76, Cis-N-((6-chloropyridin-3-yl)methyl)-5-(4-ethylphenyl)-7-(trifluoromethyl)-4,5,6,7-tetrahydropyrazolo[1,5-a]pyrimidine-3-carboxamide] | 1 to 2 µM (≈ 0.464 to 0.928 µg/mL)
14 | CCc1ccc([C@H]2C[C@@H](C(F)(F)F)n3ncc(C(=O)NCc4ccc(F)c(C)n4)c3N2)cc1 (relative stereo) [Example 77, Cis-5-(4-ethylphenyl)-N-((5-fluoro-6-methylpyridin-2-yl)methyl)-7-(trifluoromethyl)-4,5,6,7-tetrahydropyrazolo[1,5-a]pyrimidine-3-carboxamide] | 1 to 2 µM (≈ 0.461 to 0.923 µg/mL)
15 | CCc1ccc([C@H]2C[C@@H](C(F)(F)F)n3ncc(C(=O)NCc4ccc(OC)cc4)c3N2)cc1 (single isomer, unassigned) [Example 1a] | ≤ 1 µM
16 | CCc1ccc([C@@H]2C[C@H](C(F)(F)F)n3ncc(C(=O)NCc4ccc(OC)cc4)c3N2)cc1 (single isomer, unassigned) [Example 1b] | > 2 µM

Row | SMILES | MIC
17 | CCc1ccc([C@H]2C[C@@H](C(F)(F)F)n3ncc(C(=O)NCc4ccco4)c3N2)cc1 (single isomer, unassigned) [Example 7a] | ≤ 1 µM
18 | CCc1ccc([C@@H]2C[C@H](C(F)(F)F)n3ncc(C(=O)NCc4ccco4)c3N2)cc1 (single isomer, unassigned) [Example 7b] | > 2 µM
19 | O=C(NCc1ccco1)c1cnn2c1NC(c1ccc(Br)cc1)CC2C(F)(F)F (centres unmarked) [57′, 5-(4-bromophenyl)-N-(furan-2-ylmethyl)-7-(trifluoromethyl)-4,5,6,7-tetrahydropyrazolo[1,5-a]pyrimidine-3-carboxamide, reference compound] | > 2 µM
20 | CCc1ccc(C2CC(C(F)(F)F)n3ncc(C(=O)NCc4ccc5c(c4)OCO5)c3N2)cc1 (centres unmarked) [Example 37, N-(benzo[d][1,3]dioxol-5-ylmethyl)-5-(4-ethylphenyl)-7-(trifluoromethyl)-4,5,6,7-tetrahydropyrazolo[1,5-a]pyrimidine-3-carboxamide] | ≤ 1 µM
21 | Cc1ccc(C2CC(C(F)(F)F)n3ncc(C(=O)NCc4ccc5c(c4)OCO5)c3N2)cc1 (centres unmarked) [Example 38, N-(benzo[d][1,3]dioxol-5-ylmethyl)-5-(p-tolyl)-7-(trifluoromethyl)-4,5,6,7-tetrahydropyrazolo[1,5-a]pyrimidine-3-carboxamide] | ≤ 1 µM
22 | COc1ccc(CNC(=O)c2cnn3c2NC(c2ccc(C)cc2)CC3C(F)(F)F)cc1 (centres unmarked) [Example 39, N-(4-methoxybenzyl)-5-(p-tolyl)-7-(trifluoromethyl)-4,5,6,7-tetrahydropyrazolo[1,5-a]pyrimidine-3-carboxamide] | ≤ 1 µM
23 | CCc1ccc(C2CC(C(F)(F)F)n3ncc(C(=O)NCc4cccs4)c3N2)cc1 (centres unmarked) [Example 40, 5-(4-ethylphenyl)-N-(thiophen-2-ylmethyl)-7-(trifluoromethyl)-4,5,6,7-tetrahydropyrazolo[1,5-a]pyrimidine-3-carboxamide] | ≤ 1 µM
24 | COc1ccc(C2CC(C(F)(F)F)n3ncc(C(=O)NCc4ccc5c(c4)OCO5)c3N2)cc1 (centres unmarked) [Example 41, N-(benzo[d][1,3]dioxol-5-ylmethyl)-5-(4-methoxyphenyl)-7-(trifluoromethyl)-4,5,6,7-tetrahydropyrazolo[1,5-a]pyrimidine-3-carboxamide] | ≤ 1 µM
25 | Cc1ccc(CNC(=O)c2cnn3c2NC(c2ccc(C)cc2)CC3C(F)F)cc1 (centres unmarked) [Example 51, 7-(difluoromethyl)-N-(4-methylbenzyl)-5-(p-tolyl)-4,5,6,7-tetrahydropyrazolo[1,5-a]pyrimidine-3-carboxamide] | > 2 µM
26 | Cc1ccc(C2CC(C(F)(F)F)n3ncc(C(=O)NCc4ccccc4Cl)c3N2)cc1 (centres unmarked) [Example 52, N-(2-chlorobenzyl)-5-(p-tolyl)-7-(trifluoromethyl)-4,5,6,7-tetrahydropyrazolo[1,5-a]pyrimidine-3-carboxamide] | > 2 µM
27 | COc1ccc(C2CC(C(F)(F)F)n3ncc(C(=O)NCc4ccccc4)c3N2)cc1 (centres unmarked) [Example 53, N-benzyl-5-(4-methoxyphenyl)-7-(trifluoromethyl)-4,5,6,7-tetrahydropyrazolo[1,5-a]pyrimidine-3-carboxamide] | > 2 µM
28 | COc1ccc(CNC(=O)c2cnn3c2NC(c2ccc(OC)cc2)CC3C(F)(F)F)cc1 (centres unmarked) [Example 54, N-(4-methoxybenzyl)-5-(4-methoxyphenyl)-7-(trifluoromethyl)-4,5,6,7-tetrahydropyrazolo[1,5-a]pyrimidine-3-carboxamide] | > 2 µM
29 | Cc1ccc(C2CC(C(F)F)n3ncc(C(=O)NCc4ccccc4C(F)(F)F)c3N2)cc1 (centres unmarked) [Example 55, 7-(difluoromethyl)-5-(p-tolyl)-N-(2-(trifluoromethyl)benzyl)-4,5,6,7-tetrahydropyrazolo[1,5-a]pyrimidine-3-carboxamide] | > 2 µM
30 | CCc1ccc([C@H]2C[C@@H](C(F)(F)F)n3ncc(C(=O)NCc4ncc(F)cc4F)c3N2)cc1 [Example 101, (5R,7S)—N-((3,5-difluoropyridin-2-yl)methyl)-5-(4-ethylphenyl)-7-(trifluoromethyl)-4,5,6,7-tetrahydropyrazolo[1,5-a]pyrimidine-3-carboxamide] | ≤ 1 µM
31 | CCc1ccc([C@H]2C[C@@H](C(F)(F)F)n3ncc(C(=O)NCc4ccc(OC)nc4)c3N2)cc1 [Example 102, (5R,7S)-5-(4-ethylphenyl)-N-((6-methoxypyridin-3-yl)methyl)-7-(trifluoromethyl)-4,5,6,7-tetrahydropyrazolo[1,5-a]pyrimidine-3-carboxamide] | ≤ 1 µM
32 | CCc1ccc([C@H]2C[C@@H](C(F)(F)F)n3ncc(C(=O)NCc4ccc(Cl)nc4)c3N2)cc1 [Example 103, (5R,7S)—N-((6-chloropyridin-3-yl)methyl)-5-(4-ethylphenyl)-7-(trifluoromethyl)-4,5,6,7-tetrahydropyrazolo[1,5-a]pyrimidine-3-carboxamide] | ≤ 1 µM
